Experimental data reported in ChEMBL document CHEMBL5036329, “4-Methyl-1,2,3-Triazoles as N-Acetyl-Lysine Mimics Afford Potent BET Bromodomain Inhibitors with Improved Selectivity” (J Med Chem, 2021).

Assays:
[1] = Microsomal stability in human liver microsomes assessed as fraction unbound measured upto 60 mins in presence of NADPH regenerating system by LC-MS analysis; type: ADME, Microsome; conditions: 1 h
[2] = molecular target: T1, Bromodomain testis-specific protein (Homo sapiens, UniProt Q58F21); assay: Binding affinity to human partial length BRDT BD1 expressed in bacterial expression system assessed as dissociation constant by BROMOscan assay
[3] = molecular target: T1, Bromodomain testis-specific protein; assay: Binding affinity to human partial length BRDT BD2 expressed in bacterial expression system assessed as dissociation constant by BROMOscan assay
[4] = molecular target: T2, Bromodomain-containing protein 3 (Homo sapiens, UniProt Q15059); assay: Binding affinity to human partial length BRD3 BD2 expressed in bacterial expression system assessed as dissociation constant by BROMOscan assay
T2 sequence (Q15059 whole entry): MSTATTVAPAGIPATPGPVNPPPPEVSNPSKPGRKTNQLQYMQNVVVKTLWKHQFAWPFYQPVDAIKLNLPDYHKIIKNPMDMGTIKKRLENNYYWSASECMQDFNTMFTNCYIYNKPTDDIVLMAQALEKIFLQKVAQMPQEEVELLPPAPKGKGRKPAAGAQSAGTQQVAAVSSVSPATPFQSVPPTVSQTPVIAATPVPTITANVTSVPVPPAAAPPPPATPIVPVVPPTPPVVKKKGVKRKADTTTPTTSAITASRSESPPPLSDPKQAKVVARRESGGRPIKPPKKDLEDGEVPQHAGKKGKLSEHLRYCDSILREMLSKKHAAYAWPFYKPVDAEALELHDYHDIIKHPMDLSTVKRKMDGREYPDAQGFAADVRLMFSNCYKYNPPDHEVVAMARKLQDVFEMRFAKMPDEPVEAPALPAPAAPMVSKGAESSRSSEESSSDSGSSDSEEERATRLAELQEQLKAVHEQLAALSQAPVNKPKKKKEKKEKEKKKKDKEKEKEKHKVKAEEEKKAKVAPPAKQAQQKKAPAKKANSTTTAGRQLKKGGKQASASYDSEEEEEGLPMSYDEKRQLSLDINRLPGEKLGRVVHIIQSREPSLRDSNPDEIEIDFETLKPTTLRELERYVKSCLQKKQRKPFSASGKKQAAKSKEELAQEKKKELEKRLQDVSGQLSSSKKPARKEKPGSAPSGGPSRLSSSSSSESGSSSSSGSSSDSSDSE

[5] = molecular target: T2, Bromodomain-containing protein 3; assay: Binding affinity to human partial length BRD3 BD1 expressed in bacterial expression system assessed as dissociation constant by BROMOscan assay

Cc1nnn(C2CCNCC2)c1-c1cccc(Oc2cc(Br)cc(Br)c2)n1 showed a Fu [1] of 0.09.

For Cc1cc(C)cc(Oc2cccc(-c3c(C)nnn3C3CCNCC3)n2)c1, the Fu [1] was 0.13.

Cc1cc(C)cc(Nc2nccc(-c3c(-c4ccc(C(F)(F)F)cc4)ncn3C3CCN(CCN)CC3)n2)c1 gave a Fu [1] of 0.08.

Cc1nnn(C2CCN(CCN(C)C)CC2)c1-c1cccc(Oc2cc(Br)ccc2Br)n1 showed a Fu [1] of 0.13.

In the case of Cc1nnn(C2CCNCC2)c1-c1cccc(Oc2cc(C3CC3)cc(C3CC3)c2)n1, the Fu [1] is reported as 0.12.

With Cc1nnn(C2CCNCC2)c1-c1cccc(Oc2cc(Cl)cc(Cl)c2)n1 the Fu [1] was 0.11.

With Cc1cc(C)cc(Oc2cccc(-c3c(C)nnn3C3CCN(CCN(C)C)CC3)n2)c1 the Kd [2] was 15 nM, the Kd [3] was 250 nM and the Kd [4] was 310 nM. For the same molecule, the Kd [5] was 20 nM and the Fu [1] was 0.14.
